# Test results published in patent publication EP3375430A1, “FRAGRANCE COMPOSITIONS” (Takasago International Corporation, priority 2017, dated 2018).
# Columns and labels:
# [1] = Amount of fragrance ingredients retained on paper blotter after evaporation (ethanol extraction, GC-MS); type: physicochemical
# Outline: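 100 µL of fragrance formulation applied to paper blotters kept at 32°C open to air; at each time three blotters extracted 1 h in ethanol with methyl decanoate internal standard and analysed by GC-MS (HP-5MS, 50–280°C). Amounts averaged over triplicates and expressed as percent of time-zero level.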
# [2] = Headspace concentration of fragrance ingredients over blotter (thermal desorption GC-MS); type: physicochemical; details: fragrance TAK;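 as to headspace concentration in composition C1 compared to control EdT1: C1 is an invention composition and EdT1 a conventional EdT of fragrance TAK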
# Outline: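 Fragrance (100µL) applied to a 10 cm perfumers' blotter held on a 32°C hot plate, equilibrated 5 min; headspace drawn through Tenax TA tubes at 17mL/min until 280mL collected, repeated at later sampling times. Tubes thermally desorbed splitless onto HP-5MS column, GC-MS detection, mass range 35 to 350.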
compound,measurement,setting,value
C=CC(C)(O)CCC=C(C)C (stereo not drawn) [Linalool],amount of fragrance ingredient retained on blotter (percentage of the initial amount),"[1]; Table 3, fragrance TAK in C1, 15 min, 32°C",80%
same,amount of fragrance ingredient retained on blotter (percentage of the initial amount),"[1]; Table 3, fragrance TAK in C1, 60 min, 32°C",61%
same,amount of fragrance ingredient retained on blotter (percentage of the initial amount),"[1]; Table 3, fragrance TAK in C1, 120 min, 32°C",35%
same,amount of fragrance ingredient retained on blotter (percentage of the initial amount),"[1]; Table 3, fragrance TAK in C1, 240 min, 32°C",13%
same,amount of fragrance ingredient retained on blotter (percentage of the initial amount),"[1]; Table 3, fragrance TAK in C1, 480 min, 32°C",3%
same,amount of fragrance ingredient retained on blotter (percentage of the initial amount),"[1]; Table 3, fragrance TAK in EdT1, 15 min, 32°C",57%
same,amount of fragrance ingredient retained on blotter (percentage of the initial amount),"[1]; Table 3, fragrance TAK in EdT1, 60 min, 32°C",9%
same,amount of fragrance ingredient retained on blotter (percentage of the initial amount),"[1]; Table 3, fragrance TAK in EdT1, 120 min, 32°C",1%
same,amount of fragrance ingredient retained on blotter (percentage of the initial amount),"[1]; Table 3, fragrance TAK in EdT1, 240 min, 32°C",1%
same,amount of fragrance ingredient retained on blotter (percentage of the initial amount),"[1]; Table 3, fragrance TAK in EdT1, 480 min, 32°C",<1%
same,amount of fragrance ingredient retained on blotter (percentage of the initial amount),"[1]; Table 3, fragrance TAK in EdT1 or C1, T0, set at 100% (normalisation)",100%
same,amount of fragrance ingredient retained on blotter (percentage of the initial amount),"[1]; Table 4, fragrance TAK in C2, 15 min, 32°C",92%
same,amount of fragrance ingredient retained on blotter (percentage of the initial amount),"[1]; Table 4, fragrance TAK in C2, 480 min, 32°C",4%
same,amount of fragrance ingredient retained on blotter (percentage of the initial amount),"[1]; Table 4, fragrance TAK in EdT1, 15 min, 32°C",58%
same,amount of fragrance ingredient retained on blotter (percentage of the initial amount),"[1]; Table 4, fragrance TAK in EdT1, 480 min, 32°C",3%
same,amount of fragrance ingredient retained on blotter (percentage of the initial amount),"[1]; Table 4, fragrance TAK in EdT1 or C2, T0, set at 100% (normalisation)",100%
same,amount of fragrance ingredient retained on blotter (percentage of the initial amount),"[1]; Table 5, fragrance TAK in C3, 15 min, 32°C",85%
same,amount of fragrance ingredient retained on blotter (percentage of the initial amount),"[1]; Table 5, fragrance TAK in C3, 60 min, 32°C",61%
same,amount of fragrance ingredient retained on blotter (percentage of the initial amount),"[1]; Table 5, fragrance TAK in C3, 120 min, 32°C",37%
same,amount of fragrance ingredient retained on blotter (percentage of the initial amount),"[1]; Table 5, fragrance TAK in C3, 240 min, 32°C",18%
same,amount of fragrance ingredient retained on blotter (percentage of the initial amount),"[1]; Table 5, fragrance TAK in C3, 480 min, 32°C",3%
same,amount of fragrance ingredient retained on blotter (percentage of the initial amount),"[1]; Table 5, fragrance TAK in C3, 1440 min, 32°C",1%
same,amount of fragrance ingredient retained on blotter (percentage of the initial amount),"[1]; Table 5, fragrance TAK in EdT1, 15 min, 32°C",57%
same,amount of fragrance ingredient retained on blotter (percentage of the initial amount),"[1]; Table 5, fragrance TAK in EdT1, 60 min, 32°C",9%
same,amount of fragrance ingredient retained on blotter (percentage of the initial amount),"[1]; Table 5, fragrance TAK in EdT1, 120 min, 32°C",1%
same,amount of fragrance ingredient retained on blotter (percentage of the initial amount),"[1]; Table 5, fragrance TAK in EdT1, 240 min, 32°C",<1%
same,amount of fragrance ingredient retained on blotter (percentage of the initial amount),"[1]; Table 5, fragrance TAK in EdT1, 480 min, 32°C",<1%
same,amount of fragrance ingredient retained on blotter (percentage of the initial amount),"[1]; Table 5, fragrance TAK in EdT1, 1440 min, 32°C",<1%
same,amount of fragrance ingredient retained on blotter (percentage of the initial amount),"[1]; Table 5, fragrance TAK in EdT1 or C3, T0, set at 100% (normalisation)",100%
same,amount of fragrance ingredient retained on blotter (percentage of the initial amount),"[1]; Table 6, fragrance TAK in C4, 15 min, 32°C",81%
same,amount of fragrance ingredient retained on blotter (percentage of the initial amount),"[1]; Table 6, fragrance TAK in C4, 60 min, 32°C",61%
same,amount of fragrance ingredient retained on blotter (percentage of the initial amount),"[1]; Table 6, fragrance TAK in C4, 120 min, 32°C",28%
same,amount of fragrance ingredient retained on blotter (percentage of the initial amount),"[1]; Table 6, fragrance TAK in C4, 240 min, 32°C",13%
same,amount of fragrance ingredient retained on blotter (percentage of the initial amount),"[1]; Table 6, fragrance TAK in C4, 480 min, 32°C",8%
same,amount of fragrance ingredient retained on blotter (percentage of the initial amount),"[1]; Table 6, fragrance TAK in EdT1, 15 min, 32°C",57%
same,amount of fragrance ingredient retained on blotter (percentage of the initial amount),"[1]; Table 6, fragrance TAK in EdT1, 60 min, 32°C",9%
same,amount of fragrance ingredient retained on blotter (percentage of the initial amount),"[1]; Table 6, fragrance TAK in EdT1, 120 min, 32°C",1%
same,amount of fragrance ingredient retained on blotter (percentage of the initial amount),"[1]; Table 6, fragrance TAK in EdT1, 240 min, 32°C",<1%
same,amount of fragrance ingredient retained on blotter (percentage of the initial amount),"[1]; Table 6, fragrance TAK in EdT1, 480 min, 32°C",<1%
same,amount of fragrance ingredient retained on blotter (percentage of the initial amount),"[1]; Table 6, fragrance TAK in EdT1 or C4, T0, set at 100% (normalisation)",100%
same,headspace concentration in composition C1 compared to control EdT1,"[2]; T0 + 4h, Figure 3",significantly greater
same,headspace concentration in composition C14 compared to control EdT1,"[2]; T0+4h and T0+8h, Figures 17 and 18",significantly greater
same,headspace concentration in composition C15 compared to control EdT1,"[2]; T0+4h and T0+8h, Figures 20 and 21, difference significant for linalool, linalyl acetate and Verdox™",greater
same,headspace concentration in composition C1 compared to control EdT1,"[2]; T0 + 8h, Figure 4",much greater
same,headspace concentration in composition C1 compared to control EdT1,"[2]; after 1 hour, Figure 2",greater
